What was measured:
CHME5 cells = assay: Cytotoxicity of rACT, FACS/trypan blue; type: cell-based, human; settings: concentrations up to 1 mM, 2 days
Description: (§1) FIGS. 6A-6E show inhibition of HIV-1 reverse transcription by 3′ deoxyadenosine chain terminator (rACT) in human primary macrophages and its cytotoxicity. FIG. 6A includes a graph showing the cytotoxicity of rACT in human primary CD4^+ T cells, U937 cells, and CHME5 cells. These three types of cells were cultured and treated with different concentrations of rACT (up to 1 mM) for 2 days, and the percentage of live and dead cells were determined by FACS and/or trypan blue staining. The percentage of the live cells in the absence of rACT was used for normalization (100%), and the base line cell death of these cell types in the absence of rACT were less than 5%. FIG. 6B includes FACS results. […] The percentages of GFP positive macrophages and PI positive cells in a representative donor, which were determined by FACS at 7 days post transduction, are shown. […] Genomic DNAs were extracted from the transduced macrophages in FIG. 6B, and were used in a quantitative 2LTR circle PCR assay. Viral production was determined by p24 ELISA with the collected media. […]
(§2) First, the cytotoxicity of rACT in human primary CD4^+ T cells, human primary macrophages, human microglial CHME5, and human premonocytic U937 cell lines was assessed. Cells were incubated with different concentrations of rACT (up to 1 mM) for 2 days, and cell survival was determined. […]

U937 cells = assay: Cytotoxicity of rACT, FACS/trypan blue; type: cell-based, human; settings: concentrations up to 1 mM, 2 days
Description: as §1, §2

[1] = test system: human primary CD4+ T cells; assay: Cytotoxicity of rACT, FACS/trypan blue; type: cell-based; settings: concentrations up to 1 mM, 2 days
Description: as §1, §2

[2] = test system: HIV-1 vector (DHIV-GFP) in activated CD4+ T cells; assay: HIV-GFP vector transduction of activated CD4+ T cells (GFP FACS); type: cell-based; settings: rACT 0.1 and 1 mM, activated CD4+ T cells compared to macrophages
Description: Next, rACT was evaluated for its ability to inhibit HIV-1 replication in non-dividing cells. The transduction efficiency of an HIV-1 vector in primary human macrophages in the presence and absence of rACT was measured. Human macrophages, which were prepared from multiple donors, were pre-incubated with various concentrations of rACT, and then transduced with an HIV vector (D3-GFP), which expressed all HIV-1 proteins except Env and Nef (replaced with eGFP). Virus infectivity was determined by FACS analysis for GFP expression at 7 days post infection. […] Finally, the effect of rACT on HIV-1 infection in activated CD4^+ T cells was examined.
(§3) Dideoxy uracil triphosphate (ddUTP) was assessed for its ability to inhibit viral reverse transcription in non-dividing cells. Primary human macrophages and CD4^+ T-cells were isolated from human buffy coats and pretreated with ddUTP. The treated cells were then transduced with a single round of VSV-G pseudotyped HIV-1 vector D3-HIV in the presence of various concentrations of drug.
rACT was tested in T cells as follows, human primary activated CD4^+ T cells (2.5×10^5) cells isolated from two donors were pre-treated with 0, 0.1, and 1 mM rACT for 4 hours, and then the cells were transduced with DHIV-GFP. The transduced cells were fixed at 48 hours post transduction, and analyzed by FACS for determining the percent of GFP cells. […]

[3] = test system: HIV-1 2-LTR DNA circles (proviral DNA synthesis) in macrophages; assay: Quantitative 2LTR circle PCR in transduced macrophages; type: cell-based; settings: rACT 0.1 and 1 mM, macrophages
Description: Human macrophages, which were prepared from multiple donors, were pre-incubated with various concentrations of rACT, and then transduced with an HIV vector (D3-GFP), which expressed all HIV-1 proteins except Env and Nef (replaced with eGFP).
as §3
Equal p24 level of the produced vector was used for infecting human macrophages pre-incubated with different concentrations of rACT (RI Chemicals, CA) for 12 hours. For ddUTP, the produced vector was pre-incubated for at least two hours. One half of the harvested cells were used for determining the percentages of the GFP expressing and/or propidium iodide (PI) stained cells by FACS at 7 days post infection. All cells used to asses transduction efficiency were gated or stained with propidium iodide to assure live cells were measured. The remaining cells were used for the extraction of genomic DNA. Quantitative 2LTR circle PCR assay using real-time PCR was normalized by total genomic DNA (Biorad, Hercules, Calif.).

[4] = test system: HIV-1 vector (D3-GFP) in primary human macrophages; assay: HIV-GFP vector transduction of primary macrophages (GFP FACS); type: cell-based; settings: rACT 0.1 and 1 mM, 7 days post infection, versus no treatment
Description: Human primary macrophages were preincubated with different concentrations of rACT (0, 10, 100 and 100 μM) for 24 hours and then transduced with HIV-GFP vector (equal p24 amounts). The percentages of GFP positive macrophages and PI positive cells in a representative donor, which were determined by FACS at 7 days post transduction, are shown. […] These experiments were performed in triplicate from three different blood donors.
Primary human macrophages were pretreated with ddUTP and transduced with a single round VSV-G pseudotyped HIV-1 vector (D3HIV). […] FIG. 10B is a graph showing the results from flow cytometry analysis of the transduced cells.
Next, rACT was evaluated for its ability to inhibit HIV-1 replication in non-dividing cells. The transduction efficiency of an HIV-1 vector in primary human macrophages in the presence and absence of rACT was measured. Human macrophages, which were prepared from multiple donors, were pre-incubated with various concentrations of rACT, and then transduced with an HIV vector (D3-GFP), which expressed all HIV-1 proteins except Env and Nef (replaced with eGFP). Virus infectivity was determined by FACS analysis for GFP expression at 7 days post infection.
Dideoxy uracil triphosphate (ddUTP) was assessed for its ability to inhibit viral reverse transcription in non-dividing cells. […]

[5] = test system: human primary macrophages; assay: Toxicity of rNCTs in macrophages, propidium iodide-based FACS; type: cell-based; settings: 0.5, 1 and 2 mM, 7 days
Description: Human primary macrophages were incubated in the presence or absence of rACT, rCCT, rGCT, or rUCT (0.5, 1 and 2 mM) for 7 days, and the percent of live cells (cell survival rate) were determined by propidium iodide-based FACS. FIG. 12 includes a graph of cell survival rate with each rNCTP.
The continuous HIV-1 culture system in human primary macrophages was also employed to evaluate the toxicity of rNCTs in nondividing cells. Human primary macrophages were incubated in the presence or absence of each rNCT (0.5, 1 and 2 mM) for 7 days, and the percentage of live cells (cell survival rate) were determined by propidium iodide-based FACS.

## Nc1ncnc2c1ncn2[C@@H]1O[C@H](CO)C[C@H]1O [rACT, 3′-deoxyadenosine]
CHME5 cells
  cytotoxicity: no significant cytotoxicity
U937 cells
  cytotoxicity: no significant cytotoxicity
[1]
  cytotoxicity: no significant cytotoxicity
[2]
  inhibitory effect on HIV-1 infection (GFP positive cells): less of an inhibitory effect
[3]
  2-LTR circle copy number: substantially reduced the 2-LTR circle copy number
[4]
  percent of macrophages expressing GFP: reduced the percent of macrophages expressing GFP
[5]
  cytotoxicity (cell survival rate): no significant cytotoxicity

— US9289445B2, “Compositions and methods for treating or preventing a retrovirus infection” (University of Rochester, priority 2011, dated 2016)
